Like-named read-outs stand apart in the source and are kept apart here.
Columns and labels:
Test in all cases: HotSpot kinase profiling
Format in all cases: biochemical
[1] = target: T1, ALK1/ACVRL1 (Homo sapiens, UniProt P37023)
T1 construct: purchased Reaction Biology Corp
How it was run: (§1)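 Percent inhibition, averaged when run more than once and referenced to a DMSO negative control, came from a radioactive filter-binding readout on P81 paper. Reactions of kinase with freshly made substrate and cofactors ran for 2 h at room temperature.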

[2] = target: T2, CDK3/cyclin E (Homo sapiens, UniProt Q00526)
T2 construct: purchased Reaction Biology Corp
How it was run: as §1

[3] = target: T3, CDK5/p35 (Homo sapiens, UniProt Q00535)
T3 construct: purchased Reaction Biology Corp
How it was run: as §1

[4] = target: T4, CK1d (Homo sapiens, UniProt P48730)
T4 construct: purchased Reaction Biology Corp
How it was run: as §1

[5] = target: T5, DYRK1B (Homo sapiens, UniProt Q9Y463)
T5 construct: purchased Reaction Biology Corp
T5 sequence (Q9Y463 whole entry): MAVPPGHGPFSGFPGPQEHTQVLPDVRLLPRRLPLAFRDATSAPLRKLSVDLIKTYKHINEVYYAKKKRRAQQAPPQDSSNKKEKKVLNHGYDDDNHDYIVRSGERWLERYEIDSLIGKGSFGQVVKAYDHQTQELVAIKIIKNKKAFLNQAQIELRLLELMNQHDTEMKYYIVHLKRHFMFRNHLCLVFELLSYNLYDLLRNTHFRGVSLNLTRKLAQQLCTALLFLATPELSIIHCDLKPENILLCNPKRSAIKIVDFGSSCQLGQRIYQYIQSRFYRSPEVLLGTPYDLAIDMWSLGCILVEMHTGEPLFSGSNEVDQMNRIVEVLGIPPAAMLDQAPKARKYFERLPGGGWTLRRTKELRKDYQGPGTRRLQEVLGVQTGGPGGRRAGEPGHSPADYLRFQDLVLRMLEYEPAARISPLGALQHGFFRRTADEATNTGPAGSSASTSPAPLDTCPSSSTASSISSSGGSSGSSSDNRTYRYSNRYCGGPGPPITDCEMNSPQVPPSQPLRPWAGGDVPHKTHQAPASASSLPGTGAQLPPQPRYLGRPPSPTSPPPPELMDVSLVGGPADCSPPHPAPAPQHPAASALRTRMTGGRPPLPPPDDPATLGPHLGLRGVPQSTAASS
How it was run: as §1

[6] = target: T6, EPHA5 (Homo sapiens, UniProt P54756)
T6 construct: purchased Reaction Biology Corp
T6 sequence (P54756 25-1037): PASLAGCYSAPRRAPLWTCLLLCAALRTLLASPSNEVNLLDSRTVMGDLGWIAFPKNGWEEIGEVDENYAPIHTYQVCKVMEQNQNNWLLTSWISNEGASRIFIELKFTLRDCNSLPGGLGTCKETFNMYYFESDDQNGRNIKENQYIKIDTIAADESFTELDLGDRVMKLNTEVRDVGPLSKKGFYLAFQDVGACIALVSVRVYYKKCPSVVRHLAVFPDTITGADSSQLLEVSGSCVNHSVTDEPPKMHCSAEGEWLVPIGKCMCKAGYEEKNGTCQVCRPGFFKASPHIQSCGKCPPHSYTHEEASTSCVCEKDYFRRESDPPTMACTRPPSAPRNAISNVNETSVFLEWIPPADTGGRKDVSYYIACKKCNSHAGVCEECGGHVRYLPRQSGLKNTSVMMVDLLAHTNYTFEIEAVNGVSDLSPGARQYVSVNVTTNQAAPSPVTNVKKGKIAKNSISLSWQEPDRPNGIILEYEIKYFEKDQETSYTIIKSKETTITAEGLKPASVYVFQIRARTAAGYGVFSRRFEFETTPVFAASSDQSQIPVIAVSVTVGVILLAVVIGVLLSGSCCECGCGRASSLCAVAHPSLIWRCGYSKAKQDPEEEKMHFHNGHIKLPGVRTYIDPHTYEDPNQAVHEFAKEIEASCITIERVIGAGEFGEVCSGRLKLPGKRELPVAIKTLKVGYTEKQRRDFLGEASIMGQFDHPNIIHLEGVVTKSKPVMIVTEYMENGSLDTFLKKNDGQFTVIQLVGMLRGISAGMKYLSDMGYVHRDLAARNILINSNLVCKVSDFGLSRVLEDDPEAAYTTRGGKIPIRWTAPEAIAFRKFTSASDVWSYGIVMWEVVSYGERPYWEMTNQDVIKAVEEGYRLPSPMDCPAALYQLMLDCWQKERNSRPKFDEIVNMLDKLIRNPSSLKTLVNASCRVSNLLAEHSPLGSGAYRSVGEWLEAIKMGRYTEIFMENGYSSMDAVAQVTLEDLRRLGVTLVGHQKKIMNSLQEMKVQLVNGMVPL
How it was run: as §1

[7] = target: T7, GRK5 (Homo sapiens, UniProt P34947)
T7 construct: purchased Reaction Biology Corp
T7 sequence (P34947 whole entry): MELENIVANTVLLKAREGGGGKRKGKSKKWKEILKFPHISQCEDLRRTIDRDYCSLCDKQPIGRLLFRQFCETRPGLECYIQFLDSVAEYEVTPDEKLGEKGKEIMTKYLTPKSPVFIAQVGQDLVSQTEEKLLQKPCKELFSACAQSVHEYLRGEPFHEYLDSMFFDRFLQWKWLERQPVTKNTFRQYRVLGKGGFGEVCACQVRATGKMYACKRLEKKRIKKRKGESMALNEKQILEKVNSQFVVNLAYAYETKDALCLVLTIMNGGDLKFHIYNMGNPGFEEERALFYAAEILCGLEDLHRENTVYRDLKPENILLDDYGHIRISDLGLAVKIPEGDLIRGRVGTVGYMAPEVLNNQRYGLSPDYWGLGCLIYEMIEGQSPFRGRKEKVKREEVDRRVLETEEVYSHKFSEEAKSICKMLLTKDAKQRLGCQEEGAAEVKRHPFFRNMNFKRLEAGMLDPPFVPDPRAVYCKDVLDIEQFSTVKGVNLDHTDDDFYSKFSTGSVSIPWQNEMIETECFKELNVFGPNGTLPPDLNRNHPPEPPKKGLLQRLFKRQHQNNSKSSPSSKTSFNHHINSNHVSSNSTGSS
How it was run: as §1

[8] = target: T8, NEK3 (Homo sapiens, UniProt P51956)
T8 construct: purchased Reaction Biology Corp
T8 sequence (P51956 1-506): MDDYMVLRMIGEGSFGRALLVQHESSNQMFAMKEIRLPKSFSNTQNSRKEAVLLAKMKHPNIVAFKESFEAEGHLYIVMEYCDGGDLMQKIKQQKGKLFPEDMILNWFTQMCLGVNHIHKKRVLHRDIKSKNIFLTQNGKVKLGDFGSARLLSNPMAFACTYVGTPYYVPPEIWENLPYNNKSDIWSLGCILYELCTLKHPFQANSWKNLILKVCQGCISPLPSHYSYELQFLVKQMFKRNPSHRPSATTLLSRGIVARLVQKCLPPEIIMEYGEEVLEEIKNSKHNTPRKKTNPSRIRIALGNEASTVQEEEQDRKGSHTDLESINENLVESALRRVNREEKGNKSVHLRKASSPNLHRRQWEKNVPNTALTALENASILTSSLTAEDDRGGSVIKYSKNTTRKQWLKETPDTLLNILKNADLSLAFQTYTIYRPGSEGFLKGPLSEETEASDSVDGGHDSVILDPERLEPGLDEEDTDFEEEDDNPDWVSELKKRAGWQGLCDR
How it was run: as §1

[9] = target: T9, NEK7 (Homo sapiens, UniProt Q8TDX7)
T9 construct: purchased Reaction Biology Corp
How it was run: as §1

[10] = target: T10, PIM3 (Homo sapiens, UniProt Q86V86)
T10 construct: purchased Reaction Biology Corp
How it was run: as §1

[11] = target: T11, PKCb1 (Homo sapiens, UniProt P05771)
T11 construct: purchased Reaction Biology Corp
T11 sequence (P05771 whole entry): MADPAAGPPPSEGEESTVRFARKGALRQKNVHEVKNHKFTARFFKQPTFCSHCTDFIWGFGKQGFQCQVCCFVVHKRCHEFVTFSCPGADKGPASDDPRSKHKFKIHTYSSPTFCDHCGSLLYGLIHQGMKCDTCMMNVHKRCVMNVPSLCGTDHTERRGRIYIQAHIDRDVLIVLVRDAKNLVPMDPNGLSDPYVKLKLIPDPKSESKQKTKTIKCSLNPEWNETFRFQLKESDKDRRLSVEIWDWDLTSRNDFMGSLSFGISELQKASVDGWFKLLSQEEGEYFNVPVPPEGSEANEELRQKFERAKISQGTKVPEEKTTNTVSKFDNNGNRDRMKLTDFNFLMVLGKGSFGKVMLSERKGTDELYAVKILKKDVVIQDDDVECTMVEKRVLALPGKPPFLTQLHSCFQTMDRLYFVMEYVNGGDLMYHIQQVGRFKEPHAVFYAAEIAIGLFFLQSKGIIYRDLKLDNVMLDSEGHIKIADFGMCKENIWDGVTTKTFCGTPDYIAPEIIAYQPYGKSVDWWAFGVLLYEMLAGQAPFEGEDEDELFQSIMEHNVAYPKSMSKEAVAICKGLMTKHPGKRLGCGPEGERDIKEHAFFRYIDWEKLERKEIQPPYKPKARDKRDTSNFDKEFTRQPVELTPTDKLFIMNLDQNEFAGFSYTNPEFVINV
How it was run: as §1

[12] = target: T12, PLK3 (Homo sapiens, UniProt Q9H4B4)
T12 construct: purchased Reaction Biology Corp
How it was run: as §1

[13] = target: T13, SRPK2 (Homo sapiens, UniProt P78362)
T13 construct: purchased Reaction Biology Corp
T13 sequence (P78362 whole entry): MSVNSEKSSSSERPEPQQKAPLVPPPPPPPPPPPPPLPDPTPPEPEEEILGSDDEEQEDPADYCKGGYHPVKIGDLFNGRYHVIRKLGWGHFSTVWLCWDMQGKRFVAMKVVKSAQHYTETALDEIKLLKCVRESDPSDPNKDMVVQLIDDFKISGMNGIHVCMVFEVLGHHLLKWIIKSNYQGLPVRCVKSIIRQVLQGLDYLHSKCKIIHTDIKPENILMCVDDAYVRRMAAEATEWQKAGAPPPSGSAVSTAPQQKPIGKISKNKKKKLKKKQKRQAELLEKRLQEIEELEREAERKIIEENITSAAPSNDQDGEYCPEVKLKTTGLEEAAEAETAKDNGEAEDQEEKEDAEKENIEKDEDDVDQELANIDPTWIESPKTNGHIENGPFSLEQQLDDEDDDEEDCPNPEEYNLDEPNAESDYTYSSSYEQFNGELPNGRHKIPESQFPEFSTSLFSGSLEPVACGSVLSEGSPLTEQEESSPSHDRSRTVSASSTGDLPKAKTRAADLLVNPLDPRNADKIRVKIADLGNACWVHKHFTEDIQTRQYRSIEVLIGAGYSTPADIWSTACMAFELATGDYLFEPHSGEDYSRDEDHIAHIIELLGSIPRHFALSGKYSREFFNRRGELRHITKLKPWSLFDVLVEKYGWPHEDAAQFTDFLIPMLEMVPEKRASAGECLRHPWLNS
How it was run: as §1

[14] = target: T14, ZIPK/DAPK3 (Homo sapiens, UniProt O43293)
T14 construct: purchased Reaction Biology Corp
T14 sequence (O43293 whole entry): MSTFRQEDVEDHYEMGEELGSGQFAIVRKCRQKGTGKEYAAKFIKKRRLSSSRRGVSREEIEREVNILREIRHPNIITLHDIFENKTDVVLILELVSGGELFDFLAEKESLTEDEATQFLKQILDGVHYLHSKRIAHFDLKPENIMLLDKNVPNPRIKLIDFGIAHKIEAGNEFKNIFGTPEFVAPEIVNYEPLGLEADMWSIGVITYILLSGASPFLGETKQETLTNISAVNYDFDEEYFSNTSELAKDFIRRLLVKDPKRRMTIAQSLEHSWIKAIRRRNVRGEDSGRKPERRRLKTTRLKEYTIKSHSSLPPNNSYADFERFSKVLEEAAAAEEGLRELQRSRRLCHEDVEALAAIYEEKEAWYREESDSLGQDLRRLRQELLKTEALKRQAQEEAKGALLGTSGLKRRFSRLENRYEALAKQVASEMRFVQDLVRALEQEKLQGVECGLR
How it was run: as §1

[15] = read-out: % Enzyme Activity (relative to DMSO controls) Run 1
[16] = read-out: % Enzyme Activity (relative to DMSO controls) Run 2

T1 sequence (P37023 22-503): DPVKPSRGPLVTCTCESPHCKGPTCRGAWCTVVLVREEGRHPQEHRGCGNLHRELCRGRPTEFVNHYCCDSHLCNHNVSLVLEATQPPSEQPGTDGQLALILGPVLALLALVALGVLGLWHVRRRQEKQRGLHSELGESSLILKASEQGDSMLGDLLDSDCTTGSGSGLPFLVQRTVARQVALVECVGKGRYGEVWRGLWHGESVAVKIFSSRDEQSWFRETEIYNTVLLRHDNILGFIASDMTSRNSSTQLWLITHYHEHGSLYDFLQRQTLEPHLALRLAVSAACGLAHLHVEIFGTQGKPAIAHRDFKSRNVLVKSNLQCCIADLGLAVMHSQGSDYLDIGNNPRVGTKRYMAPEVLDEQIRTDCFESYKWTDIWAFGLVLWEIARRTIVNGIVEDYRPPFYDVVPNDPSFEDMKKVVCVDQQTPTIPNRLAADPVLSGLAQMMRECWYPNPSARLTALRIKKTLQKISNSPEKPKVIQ

Question: With `C=CC(=O)Nc1cccc(Nc2nc(Nc3ccc(OCCOC)c(F)c3)ncc2F)c1` [Compound 2] as the compound, how does the inhibition at 3 µM [1] read?
Answer: -24.4%

Question: And the remaining activity at 3 µM [1, 15]?
Answer: 125%

Question: What about the remaining activity at 3 µM [1, 16] of the same compound?
Answer: 124%

Question: And the inhibition at 3 µM [2]?
Answer: 22.4%

Question: And the remaining activity at 3 µM [2, 15]?
Answer: 78.2%

Question: And the remaining activity at 3 µM [2, 16]?
Answer: 77%

Question: What about the inhibition at 3 µM [3] of the same compound?
Answer: 4.49%

Question: What about the remaining activity at 3 µM [3, 15] of the same compound?
Answer: 95%

Question: What about the remaining activity at 3 µM [3, 16] of the same compound?
Answer: 96.1%

Question: What about the inhibition at 3 µM [4] of the same compound?
Answer: -0.03%

Question: What about the remaining activity at 3 µM [4, 15] of the same compound?
Answer: 99.9%

Question: What about the remaining activity at 3 µM [4, 16] of the same compound?
Answer: 100%

Question: What about the inhibition at 3 µM [5] of the same compound?
Answer: 20.2%

Question: What about the remaining activity at 3 µM [5, 15] of the same compound?
Answer: 78.6%

Question: What about the remaining activity at 3 µM [5, 16] of the same compound?
Answer: 80.9%

Question: What about the inhibition at 3 µM [6] of the same compound?
Answer: 8.66%

Question: And the remaining activity at 3 µM [6, 15]?
Answer: 89.1%

Question: And the remaining activity at 3 µM [6, 16]?
Answer: 93.6%

Question: And the inhibition at 3 µM [7]?
Answer: -2.59%

Question: What about the remaining activity at 3 µM [7, 15] of the same compound?
Answer: 103%

Question: What about the remaining activity at 3 µM [7, 16] of the same compound?
Answer: 102%

Question: What about the inhibition at 3 µM [8] of the same compound?
Answer: 24.1%

Question: And the remaining activity at 3 µM [8, 15]?
Answer: 76.7%

Question: And the remaining activity at 3 µM [8, 16]?
Answer: 75.1%

Question: What about the inhibition at 3 µM [9] of the same compound?
Answer: 0.68%

Question: And the remaining activity at 3 µM [9, 15]?
Answer: 98.3%

Question: What about the remaining activity at 3 µM [9, 16] of the same compound?
Answer: 100%

Question: And the inhibition at 3 µM [10]?
Answer: -1.83%

Question: And the remaining activity at 3 µM [10, 15]?
Answer: 104%

Question: And the remaining activity at 3 µM [10, 16]?
Answer: 100%

Question: What about the inhibition at 3 µM [11] of the same compound?
Answer: 27.6%

Question: And the remaining activity at 3 µM [11, 15]?
Answer: 72.7%

Question: And the remaining activity at 3 µM [11, 16]?
Answer: 72.1%

Question: What about the inhibition at 3 µM [12] of the same compound?
Answer: 1.28%

Question: What about the remaining activity at 3 µM [12, 15] of the same compound?
Answer: 97%

Question: And the remaining activity at 3 µM [12, 16]?
Answer: 100%

Question: What about the inhibition at 3 µM [13] of the same compound?
Answer: 9.73%

Question: What about the remaining activity at 3 µM [13, 15] of the same compound?
Answer: 90.9%

Question: What about the remaining activity at 3 µM [13, 16] of the same compound?
Answer: 89.6%

Question: And the inhibition at 3 µM [14]?
Answer: -11.3%

Question: And the remaining activity at 3 µM [14, 15]?
Answer: 109%

Question: And the remaining activity at 3 µM [14, 16]?
Answer: 113%

Source: patent US9492471B2, “Methods of treating a disease or disorder associated with Bruton'S Tyrosine Kinase” (Celgene Avilomics Research, Inc., priority 2013, dated 2016)
